Measured values from PMC7316778 (Nature Communications, 2020).
“And” between values parts separate entries of the source, which are not always exact repeats. Equal values may be shown once. Read-outs that look alike come from different tables or passages of the source.

Key:
[1] = biological target: TYK2 (Homo sapiens, UniProt P29597); assay: SelectScreen kinase assay
Procedure: (§1) Selectivity profiling assays were performed by the Invitrogen SelectScreen™ Services. […] The concentration of ATP was selected to be equal to the KM, unless indicated otherwise.

[2] = biological target: TAOK1 (Homo sapiens, UniProt Q7L7X3); assay: SelectScreen kinase assay
Procedure: as §1

[3] = biological target: MST4 (Homo sapiens, UniProt Q9P289); assay: SelectScreen kinase assay
Procedure: as §1

[4] = biological target: PIM1 (Homo sapiens, UniProt P11309); assay: SelectScreen kinase assay; conditions: for Inhibition at 1 µM (%): PIM1, ZLYTE, ATP Km app
Procedure: as §1

[5] = biological target: ERBB4 (HER4) (Homo sapiens, UniProt Q15303); assay: SelectScreen kinase assay; conditions: for Inhibition at 1 µM (%): ERBB4 (HER4), ZLYTE, ATP Km app
Procedure: as §1

[6] = tested on: panel of 380 wild-type, mammalian kinases; assay: SelectScreen selectivity profiling, whole panel; type: biochemical
Procedure: Supplementary Figure 4. Single-point selectivity screen of WEL028 on a panel of 380 kinases. All data were obtained from SelectScreen™ selectivity profiling service. Assays were performed at 1 μM WEL028 with 1 h preincubation. The ATP concentration was equal to the kinase K M, except for those indicated († = LanthaScreen technology, no ATP; * = 100 µM ATP; ** = 10 µM ATP). Values represent mean percentage inhibition compared to vehicle -treated control (n = 2). […]
inhibition from minimum (0%, white) to maximum (100%, red). Source data are provided as a Source

[7] = biological target: AAK1 (Homo sapiens, UniProt Q2M2I8); assay: SelectScreen kinase assay
Procedure: as §1

[8] = biological target: SRPK1 (Homo sapiens, UniProt Q96SB4); assay: SelectScreen kinase assay
Procedure: as §1

[9] = biological target: LYN B (Homo sapiens, UniProt P07948); assay: SelectScreen kinase assay; conditions: for Inhibition at 1 µM (%): LYN B, ZLYTE, ATP Km app
Procedure: as §1

[10] = biological target: PEAK1 (Homo sapiens, UniProt Q9H792); assay: SelectScreen kinase assay
Procedure: as §1

[11] = biological target: RPS6KA3 (RSK2) (Homo sapiens, UniProt P51812); assay: SelectScreen kinase assay
Procedure: as §1

[12] = biological target: CDC7/DBF4 (Homo sapiens, UniProt O00311); assay: SelectScreen kinase assay
Procedure: as §1

[13] = biological target: CDK7/cyclin H/MNAT1 (Homo sapiens, UniProt P50613); assay: SelectScreen kinase assay
Procedure: as §1

[14] = biological target: T1, GRK1 (Homo sapiens, UniProt Q15835); assay: SelectScreen kinase assay
T1 sequence (Q15835 1-563): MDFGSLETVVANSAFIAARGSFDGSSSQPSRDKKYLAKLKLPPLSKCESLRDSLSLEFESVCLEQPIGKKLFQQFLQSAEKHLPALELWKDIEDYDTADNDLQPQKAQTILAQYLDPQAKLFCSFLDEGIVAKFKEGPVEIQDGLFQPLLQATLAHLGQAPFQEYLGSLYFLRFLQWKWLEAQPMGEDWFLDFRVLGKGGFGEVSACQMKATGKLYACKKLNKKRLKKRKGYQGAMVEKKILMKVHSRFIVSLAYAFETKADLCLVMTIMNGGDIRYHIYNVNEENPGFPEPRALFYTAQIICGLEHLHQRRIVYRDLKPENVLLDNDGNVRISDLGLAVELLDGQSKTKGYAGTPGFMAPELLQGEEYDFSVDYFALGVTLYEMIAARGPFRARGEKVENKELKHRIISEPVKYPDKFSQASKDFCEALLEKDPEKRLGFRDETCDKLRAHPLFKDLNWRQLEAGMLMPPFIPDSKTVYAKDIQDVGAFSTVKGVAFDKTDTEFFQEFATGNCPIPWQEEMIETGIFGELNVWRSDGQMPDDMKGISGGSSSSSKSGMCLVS
Procedure: as §1

[15] = biological target: PASK (Homo sapiens, UniProt Q96RG2); assay: SelectScreen kinase assay; conditions: for Inhibition at 1 µM (%): PASK, ZLYTE, ATP Km app
Procedure: as §1

[16] = biological target: SGK2 (Homo sapiens, UniProt Q9HBY8); assay: SelectScreen kinase assay
Procedure: as §1

[17] = 1 µM, ZLYTE, ATP Km app, listed as WEL028, 1 µM
[18] = 1 h, 1 μM WEL028, 1 h preincubation

Chain of PASK (Q96RG2 whole entry): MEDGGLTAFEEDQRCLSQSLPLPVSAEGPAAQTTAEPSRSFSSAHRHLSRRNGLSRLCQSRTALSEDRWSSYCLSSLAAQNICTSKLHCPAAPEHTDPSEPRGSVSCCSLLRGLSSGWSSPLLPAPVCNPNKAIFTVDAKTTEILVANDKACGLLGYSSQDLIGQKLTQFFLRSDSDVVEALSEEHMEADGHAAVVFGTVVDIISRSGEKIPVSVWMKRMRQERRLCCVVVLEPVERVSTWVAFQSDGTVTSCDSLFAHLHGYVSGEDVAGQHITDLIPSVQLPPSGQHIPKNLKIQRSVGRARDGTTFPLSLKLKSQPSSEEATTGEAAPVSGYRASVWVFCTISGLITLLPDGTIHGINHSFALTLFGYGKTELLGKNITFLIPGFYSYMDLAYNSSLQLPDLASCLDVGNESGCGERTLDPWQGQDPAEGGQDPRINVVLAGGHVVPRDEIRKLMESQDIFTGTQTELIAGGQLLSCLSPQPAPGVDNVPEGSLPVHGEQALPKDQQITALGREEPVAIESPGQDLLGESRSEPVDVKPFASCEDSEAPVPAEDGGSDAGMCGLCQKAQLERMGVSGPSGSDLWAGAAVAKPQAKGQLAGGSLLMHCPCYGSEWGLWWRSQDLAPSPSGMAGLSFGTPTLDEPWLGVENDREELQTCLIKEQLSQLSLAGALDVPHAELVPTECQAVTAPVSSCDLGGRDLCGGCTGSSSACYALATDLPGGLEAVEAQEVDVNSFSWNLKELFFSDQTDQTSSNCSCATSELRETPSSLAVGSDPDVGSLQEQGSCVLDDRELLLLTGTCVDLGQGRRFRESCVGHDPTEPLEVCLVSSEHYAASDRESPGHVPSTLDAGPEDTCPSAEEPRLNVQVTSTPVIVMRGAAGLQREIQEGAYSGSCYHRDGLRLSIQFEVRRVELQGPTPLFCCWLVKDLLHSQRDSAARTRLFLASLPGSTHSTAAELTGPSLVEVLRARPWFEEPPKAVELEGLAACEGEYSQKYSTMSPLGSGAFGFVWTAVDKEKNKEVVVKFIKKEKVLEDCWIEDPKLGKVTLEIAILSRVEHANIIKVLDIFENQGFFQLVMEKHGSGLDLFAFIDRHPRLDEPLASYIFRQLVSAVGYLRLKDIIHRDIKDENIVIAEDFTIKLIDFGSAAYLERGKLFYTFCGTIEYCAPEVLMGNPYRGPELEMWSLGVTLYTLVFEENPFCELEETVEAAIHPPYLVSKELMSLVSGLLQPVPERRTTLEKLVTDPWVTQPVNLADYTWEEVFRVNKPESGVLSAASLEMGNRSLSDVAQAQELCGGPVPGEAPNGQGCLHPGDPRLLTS
Chain of PIM1 (P11309 whole entry): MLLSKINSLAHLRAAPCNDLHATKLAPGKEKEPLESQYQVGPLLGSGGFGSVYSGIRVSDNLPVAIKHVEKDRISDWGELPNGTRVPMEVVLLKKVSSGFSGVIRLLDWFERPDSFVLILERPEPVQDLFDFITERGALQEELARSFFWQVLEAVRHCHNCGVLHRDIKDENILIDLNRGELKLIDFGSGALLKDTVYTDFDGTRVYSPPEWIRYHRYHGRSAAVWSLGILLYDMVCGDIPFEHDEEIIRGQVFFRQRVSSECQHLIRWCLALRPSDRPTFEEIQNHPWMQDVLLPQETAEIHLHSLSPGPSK
Chain of CDK7/cyclin H/MNAT1 (P50613 whole entry): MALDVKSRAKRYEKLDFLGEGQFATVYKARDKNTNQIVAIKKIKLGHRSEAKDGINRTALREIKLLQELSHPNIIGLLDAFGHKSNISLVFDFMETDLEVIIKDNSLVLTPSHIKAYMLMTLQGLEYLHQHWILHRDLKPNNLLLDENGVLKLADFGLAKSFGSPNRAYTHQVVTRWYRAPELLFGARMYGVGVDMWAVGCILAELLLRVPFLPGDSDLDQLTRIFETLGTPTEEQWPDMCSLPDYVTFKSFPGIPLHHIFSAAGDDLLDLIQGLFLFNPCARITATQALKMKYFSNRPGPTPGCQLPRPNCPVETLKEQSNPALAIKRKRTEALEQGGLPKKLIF
Chain of CDK7/cyclin H/MNAT1 (P51946 whole entry partner): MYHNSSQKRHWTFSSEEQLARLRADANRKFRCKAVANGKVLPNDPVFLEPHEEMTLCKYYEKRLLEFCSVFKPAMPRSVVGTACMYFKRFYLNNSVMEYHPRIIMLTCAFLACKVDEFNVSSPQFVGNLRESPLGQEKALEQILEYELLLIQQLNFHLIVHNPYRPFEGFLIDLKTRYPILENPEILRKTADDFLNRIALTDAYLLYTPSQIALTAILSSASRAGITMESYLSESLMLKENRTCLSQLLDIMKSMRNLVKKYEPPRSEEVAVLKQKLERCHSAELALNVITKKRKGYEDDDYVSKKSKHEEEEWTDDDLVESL
Chain of CDK7/cyclin H/MNAT1 (P51948 whole entry partner): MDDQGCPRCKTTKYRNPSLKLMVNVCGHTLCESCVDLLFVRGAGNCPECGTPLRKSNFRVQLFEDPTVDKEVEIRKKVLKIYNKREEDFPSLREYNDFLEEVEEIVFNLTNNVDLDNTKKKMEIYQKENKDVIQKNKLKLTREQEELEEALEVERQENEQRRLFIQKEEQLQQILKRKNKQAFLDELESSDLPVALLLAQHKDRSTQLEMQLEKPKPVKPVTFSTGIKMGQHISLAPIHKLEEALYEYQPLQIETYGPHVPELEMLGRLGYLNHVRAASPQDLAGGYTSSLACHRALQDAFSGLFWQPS
Chain of MST4 (Q9P289 whole entry): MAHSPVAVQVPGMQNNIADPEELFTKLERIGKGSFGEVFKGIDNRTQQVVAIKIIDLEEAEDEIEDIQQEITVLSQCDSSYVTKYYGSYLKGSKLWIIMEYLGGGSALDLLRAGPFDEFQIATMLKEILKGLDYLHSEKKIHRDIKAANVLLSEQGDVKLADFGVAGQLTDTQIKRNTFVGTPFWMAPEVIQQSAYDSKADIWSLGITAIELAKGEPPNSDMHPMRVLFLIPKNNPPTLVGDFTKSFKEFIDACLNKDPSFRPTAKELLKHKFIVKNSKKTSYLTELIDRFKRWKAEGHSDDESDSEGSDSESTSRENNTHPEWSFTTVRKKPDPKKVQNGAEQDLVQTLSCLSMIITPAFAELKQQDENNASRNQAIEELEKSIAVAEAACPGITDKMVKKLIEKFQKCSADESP
Chain of RPS6KA3 (RSK2) (P51812 whole entry): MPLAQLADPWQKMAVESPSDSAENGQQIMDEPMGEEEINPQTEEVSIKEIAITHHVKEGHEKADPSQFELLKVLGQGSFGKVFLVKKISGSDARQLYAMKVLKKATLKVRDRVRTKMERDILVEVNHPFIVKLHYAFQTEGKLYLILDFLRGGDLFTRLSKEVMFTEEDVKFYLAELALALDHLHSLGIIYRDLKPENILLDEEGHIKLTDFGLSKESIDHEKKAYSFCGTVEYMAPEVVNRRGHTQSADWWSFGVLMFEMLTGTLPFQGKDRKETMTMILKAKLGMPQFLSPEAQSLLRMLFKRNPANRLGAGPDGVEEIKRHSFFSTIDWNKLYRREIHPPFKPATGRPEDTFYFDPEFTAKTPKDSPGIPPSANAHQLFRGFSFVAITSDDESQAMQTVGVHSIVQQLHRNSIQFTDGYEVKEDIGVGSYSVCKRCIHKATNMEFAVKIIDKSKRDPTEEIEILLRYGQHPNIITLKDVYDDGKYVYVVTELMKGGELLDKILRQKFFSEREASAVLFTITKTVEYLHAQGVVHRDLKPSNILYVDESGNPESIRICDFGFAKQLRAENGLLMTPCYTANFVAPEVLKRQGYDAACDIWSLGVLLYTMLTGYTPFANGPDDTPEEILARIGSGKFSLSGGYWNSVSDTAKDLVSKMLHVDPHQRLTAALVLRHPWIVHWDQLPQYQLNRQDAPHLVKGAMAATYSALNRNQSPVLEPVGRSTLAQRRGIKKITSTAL
Chain of SGK2 (Q9HBY8 whole entry): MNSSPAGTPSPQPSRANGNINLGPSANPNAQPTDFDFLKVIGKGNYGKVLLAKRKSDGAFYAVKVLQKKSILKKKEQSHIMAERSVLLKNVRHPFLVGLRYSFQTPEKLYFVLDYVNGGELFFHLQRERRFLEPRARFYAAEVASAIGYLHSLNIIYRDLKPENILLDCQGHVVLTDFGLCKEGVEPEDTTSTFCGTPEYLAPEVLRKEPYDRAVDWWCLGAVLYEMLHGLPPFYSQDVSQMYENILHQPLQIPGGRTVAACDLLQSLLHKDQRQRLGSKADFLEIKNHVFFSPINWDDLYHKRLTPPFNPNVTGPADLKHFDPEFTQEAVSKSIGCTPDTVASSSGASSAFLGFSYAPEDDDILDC
Chain of LYN B (P07948 1-491 isoform P07948-2): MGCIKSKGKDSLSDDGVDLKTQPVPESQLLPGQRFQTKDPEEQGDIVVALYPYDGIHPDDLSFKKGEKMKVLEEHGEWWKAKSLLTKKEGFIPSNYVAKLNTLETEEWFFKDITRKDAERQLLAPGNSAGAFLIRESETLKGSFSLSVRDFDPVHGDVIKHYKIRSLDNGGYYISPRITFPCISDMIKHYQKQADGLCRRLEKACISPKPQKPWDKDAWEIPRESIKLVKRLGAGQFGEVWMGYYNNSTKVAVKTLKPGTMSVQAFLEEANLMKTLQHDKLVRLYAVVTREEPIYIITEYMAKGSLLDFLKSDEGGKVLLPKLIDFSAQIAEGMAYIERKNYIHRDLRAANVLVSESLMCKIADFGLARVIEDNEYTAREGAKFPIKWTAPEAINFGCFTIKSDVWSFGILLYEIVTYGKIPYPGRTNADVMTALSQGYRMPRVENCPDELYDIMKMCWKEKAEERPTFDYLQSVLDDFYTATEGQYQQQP

C#CCOc1ccc(Nc2ncc(Cl)c(Nc3ccccc3NC(=O)C=C)n2)c(OC)c1 [Compound 6]
Inhibition (%) ([1]; 1 μM WEL028, 1 h preincubation): -1%
Inhibition at 1 µM (%) [1, 17]: -6% and 4%
inhibition at 1 µM [2, 18]: 23%
inhibition at 1 µM ([2]; read-out: Inhibition at 1 µM (%), 1 µM, LanthaScreen Binding): 24%
inhibition at 1 µM [3, 18]: 19%
Inhibition at 1 µM (%) ([3]; MST4, 1 µM, ZLYTE, ATP Km app, listed as WEL028, 1 µM): 18%
inhibition at 1 µM ([3]; read-out: Inhibition at 1 µM (%), MST4, 1 µM, ZLYTE, ATP Km app): 21%
inhibition at 1 µM [4, 18]: -8%
Inhibition at 1 µM (%) [4]: -11%
Inhibition at 1 µM (%) ([4]; listed as WEL028, 1 µM): -5%
inhibition at 1 µM [5, 18]: 8%
Inhibition at 1 µM (%) [5]: 11%
Inhibition at 1 µM (%) ([5]; listed as WEL028, 1 µM): 5%
Selectivity window against the residual 354 kinases ([6]; 1 μM screen vs FES^S700C): > 100 fold
Number of kinases with >50% inhibition ([6]; out of 380 tested kinases, 1 μM, 1 h preincubation): 26
inhibition at 1 µM [7, 18]: 33%
Inhibition at 1 µM (%) ([7]; AAK1, 1 µM, LanthaScreen Binding, listed as WEL028, 1 µM): 30%
inhibition at 1 µM ([7]; read-out: Inhibition at 1 µM (%), AAK1, 1 µM, LanthaScreen Binding): 35%
Inhibition at 1 µM (%) [8, 17]: 2% and 11%
inhibition at 1 µM [8, 18]: 7%
inhibition at 1 µM [9, 18]: 1%
Inhibition at 1 µM (%) [9]: 3%
Inhibition at 1 µM (%) ([9]; listed as WEL028, 1 µM): 0%
inhibition at 1 µM [10, 18]: 7%
Inhibition at 1 µM (%) ([10]; PEAK1, 1 µM, ZLYTE, ATP Km app, listed as WEL028, 1 µM): 8%
inhibition at 1 µM ([10]; read-out: Inhibition at 1 µM (%), PEAK1, 1 µM, ZLYTE, ATP Km app): 6%
Inhibition at 1 µM (%) [11, 17]: 12%
inhibition at 1 µM [11, 18]: 13%
inhibition at 1 µM ([11]; read-out: Inhibition at 1 µM (%), 1 µM, ZLYTE, ATP Km app): 13%
inhibition at 1 µM [12, 18]: 3%
Inhibition at 1 µM (%) ([12]; CDC7/DBF4, 1 µM, LanthaScreen Binding, listed as WEL028, 1 µM): 6% and 1%
inhibition at 1 µM [13, 18]: 6%
Inhibition at 1 µM (%) ([13]; CDK7/cyclin H/MNAT1, 1 µM, Adapta, ATP Km app, listed as WEL028, 1 µM): 2% and 11%
inhibition at 1 µM [14, 18]: 8%
Inhibition at 1 µM (%) ([14]; GRK1, 1 µM, LanthaScreen Binding, listed as WEL028, 1 µM): 7%
inhibition at 1 µM ([14]; read-out: Inhibition at 1 µM (%), GRK1, 1 µM, LanthaScreen Binding): 9%
inhibition at 1 µM [15, 18]: 2%
Inhibition at 1 µM (%) [15]: -3%
Inhibition at 1 µM (%) ([15]; listed as WEL028, 1 µM): 7%
Inhibition at 1 µM (%) [16, 17]: 4% and -1%
inhibition at 1 µM [16, 18]: 2%
